Reference: US20230141603A1, “BENZODIAZEPINE DERIVATIVES AS GABA A GAMMA1 PAM” (Hoffmann-La Roche Inc., priority 2021, published 2023)

These compounds were tested against T1, h-GABAA α5β2γ1 (Homo sapiens, UniProt P31644+Q8N1C3) (assay: Radioligand binding assay, [3H]RO7239181 competition, HEK293F membranes).
T1 construct: expressed in transfected cells; host or cells: HEK293F cells (ThermoFisher R79007), membranes
T1 sequence (P31644 32-462): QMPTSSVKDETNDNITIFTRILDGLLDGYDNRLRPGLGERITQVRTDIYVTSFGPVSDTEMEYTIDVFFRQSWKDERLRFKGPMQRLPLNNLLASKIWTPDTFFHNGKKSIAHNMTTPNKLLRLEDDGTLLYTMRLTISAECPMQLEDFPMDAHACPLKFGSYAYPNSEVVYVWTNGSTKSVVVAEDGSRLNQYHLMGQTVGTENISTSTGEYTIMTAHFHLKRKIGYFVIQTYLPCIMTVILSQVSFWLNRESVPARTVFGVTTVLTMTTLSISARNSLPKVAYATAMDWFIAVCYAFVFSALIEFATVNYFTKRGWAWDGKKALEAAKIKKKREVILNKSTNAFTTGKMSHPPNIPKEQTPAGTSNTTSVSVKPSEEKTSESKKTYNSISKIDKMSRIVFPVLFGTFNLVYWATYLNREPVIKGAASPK
T1 sequence (P47870 25-512 partner limits assumed): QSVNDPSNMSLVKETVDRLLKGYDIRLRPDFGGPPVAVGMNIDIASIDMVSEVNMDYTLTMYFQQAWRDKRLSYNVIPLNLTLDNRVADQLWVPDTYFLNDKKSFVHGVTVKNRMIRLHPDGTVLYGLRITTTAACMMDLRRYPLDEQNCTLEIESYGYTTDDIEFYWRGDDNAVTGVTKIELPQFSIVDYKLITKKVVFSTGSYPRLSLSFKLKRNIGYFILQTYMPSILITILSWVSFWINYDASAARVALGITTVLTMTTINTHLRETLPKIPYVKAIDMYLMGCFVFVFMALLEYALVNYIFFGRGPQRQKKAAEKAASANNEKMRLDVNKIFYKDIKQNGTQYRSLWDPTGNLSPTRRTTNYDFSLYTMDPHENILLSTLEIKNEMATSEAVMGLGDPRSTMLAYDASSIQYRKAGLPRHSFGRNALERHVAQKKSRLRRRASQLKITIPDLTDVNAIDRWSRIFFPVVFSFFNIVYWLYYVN
T1 sequence (Q8N1C3 36-465): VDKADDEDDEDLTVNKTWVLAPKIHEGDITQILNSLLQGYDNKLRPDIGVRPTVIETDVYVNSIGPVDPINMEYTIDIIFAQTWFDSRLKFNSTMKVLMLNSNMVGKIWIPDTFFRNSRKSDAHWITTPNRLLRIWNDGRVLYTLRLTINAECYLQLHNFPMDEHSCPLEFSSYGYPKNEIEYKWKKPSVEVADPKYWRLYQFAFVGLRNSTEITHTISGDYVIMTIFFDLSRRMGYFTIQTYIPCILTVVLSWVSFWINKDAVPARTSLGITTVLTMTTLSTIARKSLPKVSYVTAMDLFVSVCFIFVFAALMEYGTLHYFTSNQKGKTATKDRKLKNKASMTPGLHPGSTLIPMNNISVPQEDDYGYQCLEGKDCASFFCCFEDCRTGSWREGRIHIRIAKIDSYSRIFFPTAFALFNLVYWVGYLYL
Method: The affinity of compounds at GABAA γ1 subunit-containing receptors was measured by competition for [^3H]RO7239181 (67.3 Ci/mmol; Roche) binding to membranes from HEK293F cells (ThermoFisher R79007) expressing human (transiently transfected) receptors of composition […], α2β2γ1, α1β2γ1. For better protein expression of the α2 subunit-containing receptors, the 28 amino acid long signal peptide (Met1 to Ala28) of the human GABAA α2 subunit was substituted by the 31 amino acid long signal peptide (Met1 to Ser31) of human GABAA α5 subunit.
Harvested pellets from HEK293F cells expressing the different GABAA receptor subtypes were resuspended in Mannitol Buffer pH 7.2-7.4 (Mannitol 0.29M, Triethylamine 10 mM, Acetic acid 10 mM, EDTA 1 mM plus protease inhibitors (20 tablets Complete, Roche Diagnostics Cat. No. 05 056 489 001 per liter)), washed two times and then resuspended at 1:10 to 1:15 dilution in the same buffer. Cell disruption was performed by stirring the suspension in a Parr vessel #4637 at 435 psi for 15 minutes, and then the suspensions were centrifuged at 1000×g for 15 minutes at 4° C. (Beckman Avanti J-HC; rotor JS-4.2). The supernatant (S1) was transferred in a 21 Schott flask and the pellet (P1) was resuspended with Mannitol Buffer up to 175 ml. The resuspended pellet was transferred into a 250 ml Corning centrifugal beaker and centrifuged at 1500×g for 10 minutes at 4° C. (Beckman Avanti J-HC; rotor JS-4.2). The supernatant (S1) was then transferred in the 21 Schott flask and the pellet was discarded. The supernatants (S1) were centrifuged in 500 ml Beckman polypropylene centrifugal beaker at 15′000×g for 30 minutes at 4° C. (Beckman Avanti J-20 XP; rotor JLA-10.500). The pellet (P2) was resuspended with Mannitol Buffer 1:1 and frozen at −80° C. The supernatant (S2) was centrifuged in 100 ml Beckman polypropylene centrifugal tubes at 48000×g for 50 minutes at 4° C. (Beckman Avanti J-20 XP; rotor JA-18). The supernatant (S3) was discarded and the pellet (P3) was resuspended with 1:1 Mannitol Buffer. The P2 and P3 protein concentration was determined with the BIORAD Standard assay method with bovine serum albumin as standard and measured on the NANO-Drop 1000. The membrane suspension was aliquots (500 μl per tube) and stored at −80° C. until required. Membrane homogenates were resuspended and polytronised (Polytron PT1200E Kinematica AG) in Potassium Phosphate 10 mM, KCl 100 mM binding buffer at pH 7.4 to a final assay concentration determined with a previous experiment.
Radioligand binding assays were carried out in a volume of 200 μL (96-well plates) which contained 100 μL of cell membranes, [^3H]RO7239181 at a concentration of 1.5 nM (α5β2γ1) or 20-30 nM (α1β2γ1, α2β2γ1) and the test compound in the range of [0.3-10000]×10^−9 M. Nonspecific binding was defined by 10×10^−6 (α5β2γ1) and 30×10^−6 M RO7235136 and typically represented less than 5% (α5β2γ1) and less than 20% (α1β2γ1, α2β2γ1) of the total binding. Assays were incubated to equilibrium for 1 hour at 4° C. and then, membranes were filtered onto unifilter (96-well white microplate with bonded GF/C filters preincubated 20-50 minutes in 0.3% Polyethylenimine) with a Filtermate 196 harvester (Packard BioScience) and washed 4 times with cold Potassium Phosphate 10 mM pH 7.4, KCl 100 mM binding buffer. After drying, filter-retained radioactivity was detected by liquid scintillation counting. Ki values were calculated using Excel-Fit (Microsoft) and are the means of two determinations.
With `Cc1nnc2n1-c1ccc(Br)c(Cl)c1C(c1c(F)cccc1F)=NC2` [Example 1, 8-bromo-7-chloro-6-(2,6-difluorophenyl)-1-methyl-4H-[1,2,4]triazolo[4,3-a][1,4]benzodiazepine] the Ki was 1.1 nM.
With `Fc1ccccc1C1=NCc2nnc(C3CC3)n2-c2ccc(Br)c(Cl)c21` [Example 2, 8-bromo-7-chloro-1-cyclopropyl-6-(2-fluorophenyl)-4H-[1,2,4]triazolo[4,3-a][1,4]benzodiazepine] the Ki was 5.7 nM.
Work on `Fc1ccccc1C1=NCc2nnc(-c3cccnn3)n2-c2ccc(Br)c(Cl)c21` [Example 3, 8-bromo-7-chloro-6-(2-fluorophenyl)-1-pyridazin-3-yl-4H-[1,2,4]triazolo[4,3-a][1,4]benzodiazepine] yielded a Ki of 1.5 nM.
`Cc1nnc2n1-c1ccc(Cl)c(Cl)c1C(c1ccccc1F)=NC2` [Example 4, 7,8-dichloro-6-(2-fluorophenyl)-1-methyl-4H-[1,2,4]triazolo[4,3-a][1,4]benzodiazepine] was tested, and the Ki was 5.4 nM.
With `Cc1nnc2n1-c1ccc(Cl)c(Cl)c1C(c1c(F)cccc1F)=NC2` [Example 5, 7,8-dichloro-6-(2,6-difluorophenyl)-1-methyl-4H-[1,2,4]triazolo[4,3-a][1,4]benzodiazepine] the Ki was 0.8 nM.
`Cc1nnc2n1-c1ccc(C3CC3)c(Cl)c1C(c1c(F)cccc1F)=NC2` [Example 6, 7-chloro-8-cyclopropyl-6-(2,6-difluorophenyl)-1-methyl-4H-[1,2,4]triazolo[4,3-a][1,4]benzodiazepine] was tested, and the Ki was 12.7 nM.
`Fc1cccc(F)c1C1=NCc2nncn2-c2ccc(Br)c(Cl)c21` [Example 7, 8-bromo-7-chloro-6-(2,6-difluorophenyl)-4H-[1,2,4]triazolo[4,3-a][1,4]benzodiazepine] showed a Ki of 0.4 nM.
`Fc1ccccc1C1=NCc2nncn2-c2ccc(Br)c(Cl)c21` [Example 8, 8-bromo-7-chloro-6-(2-fluorophenyl)-4H-[1,2,4]triazolo[4,3-a][1,4]benzodiazepine] gave a Ki of 2.3 nM.
Work on `O=c1[nH]nc2n1-c1ccc(Cl)c(Cl)c1C(c1c(F)cccc1F)=NC2` [Example 9, 7,8-dichloro-6-(2,6-difluorophenyl)-2,4-dihydro-[1,2,4]triazolo[4,3-a][1,4]benzodiazepin-1-one] yielded a Ki of 0.7 nM.
For `Fc1ccccc1C1=NCc2nnc(-c3cccnn3)n2-c2ccc(Cl)c(Cl)c21` [Example 10, 7,8-dichloro-6-(2-fluorophenyl)-1-pyridazin-3-yl-4H-[1,2,4]triazolo[4,3-a][1,4]benzodiazepine], the Ki was 1.4 nM.
With `Fc1cccc(F)c1C1=NCc2nnc(C3CCOCC3)n2-c2ccc(Cl)c(Cl)c21` [Example 11, 7,8-dichloro-6-(2,6-difluorophenyl)-1-tetrahydropyran-4-yl-4H-[1,2,4]triazolo[4,3-a][1,4]benzodiazepine] the Ki was 8.3 nM.
`Fc1cccc(F)c1C1=NCc2nnc(-c3ccncn3)n2-c2ccc(Cl)c(Cl)c21` [Example 12, 7,8-dichloro-6-(2,6-difluorophenyl)-1-pyrimidin-4-yl-4H-[1,2,4]triazolo[4,3-a][1,4]benzodiazepine] gave a Ki of 2.3 nM.
`O=c1[nH]nc2n1-c1ccc(Br)c(Cl)c1C(c1c(F)cccc1F)=NC2` [Example 13, 8-bromo-7-chloro-6-(2,6-difluorophenyl)-2,4-dihydro-[1,2,4]triazolo[4,3-a][1,4]benzodiazepin-1-one] showed a Ki of 1.1 nM.
`Fc1cccc(F)c1C1=NCc2nnc(-c3cccnn3)n2-c2ccc(Cl)c(Cl)c21` [Example 14, 7,8-dichloro-6-(2,6-difluorophenyl)-1-pyridazin-3-yl-4H-[1,2,4]triazolo[4,3-a][1,4]benzodiazepine] gave a Ki of 0.8 nM.
Compound `Fc1cccc(F)c1C1=NCc2nncn2-c2ccc(Cl)c(Cl)c21` [Example 15, 7,8-dichloro-6-(2,6-difluorophenyl)-4H-[1,2,4]triazolo[4,3-a][1,4]benzodiazepine] has a Ki of 0.9 nM.
`Cc1ccc2c(c1Cl)C(c1c(F)cccc1F)=NCc1n[nH]c(=O)n1-2` [Example 16, 7-chloro-6-(2,6-difluorophenyl)-8-methyl-2,4-dihydro-[1,2,4]triazolo[4,3-a][1,4]benzodiazepin-1-one] was tested, and the Ki was 1.8 nM.
In the case of `Cc1ccc2c(c1Cl)C(c1c(F)cccc1F)=NCc1nncn1-2` [Example 17, 7-chloro-6-(2,6-difluorophenyl)-8-methyl-4H-[1,2,4]triazolo[4,3-a][1,4]benzodiazepine], the Ki is reported as 1.3 nM.
Work on `Fc1ccccc1C1=NCc2nnc(-c3ccncn3)n2-c2ccc(Cl)c(Cl)c21` [Example 18, 7,8-dichloro-6-(2-fluorophenyl)-1-pyrimidin-4-yl-4H-[1,2,4]triazolo[4,3-a][1,4]benzodiazepine] yielded a Ki of 2.6 nM.
Work on `COCCc1nnc2n1-c1ccc(Cl)c(Cl)c1C(c1c(F)cccc1F)=NC2` [Example 19, 7,8-dichloro-6-(2,6-difluorophenyl)-1-(2-methoxyethyl)-4H-[1,2,4]triazolo[4,3-a][1,4]benzodiazepine] yielded a Ki of 2.5 nM.
`Cc1ccc2c(c1Cl)C(c1c(F)cccc1F)=NCc1nnc(C)n1-2` [Example 20, 7-chloro-6-(2,6-difluorophenyl)-1,8-dimethyl-4H-[1,2,4]triazolo[4,3-a][1,4]benzodiazepine] showed a Ki of 2.9 nM.
Work on `CC(F)(F)c1ccc2c(c1Cl)C(c1c(F)cccc1F)=NCc1nncn1-2` [Example 21, 7-chloro-8-(1,1-difluoroethyl)-6-(2,6-difluorophenyl)-4H-[1,2,4]triazolo[4,3-a][1,4]benzodiazepine] yielded a Ki of 4.6 nM.
For `Cc1nnc2n1-c1ccc(C(C)(F)F)c(Cl)c1C(c1c(F)cccc1F)=NC2` [Example 22, 7-chloro-8-(1,1-difluoroethyl)-6-(2,6-difluorophenyl)-1-methyl-4H-[1,2,4]triazolo[4,3-a][1,4]benzodiazepine], the Ki was 4.3 nM.
